Results as given in patent publication US10744128B2, “6-(5-membered heteroaryl)isoquinolin-3-yl-(5-membered heteroaryl) carboxamides and preparation and use thereof” (Samumed, LLC, priority 2017, dated 2020).
Read-outs that look alike come from different tables or passages of the source.

Assays:
[1] = test system: Wnt-responsive promoter (Sp5-Luc reporter) in SW480 colon carcinoma cells; assay: Sp5-Luc reporter gene screening assay for Wnt activity in SW480 cells; assay type: cell-based, human; settings: Homo sapiens, 36 to 48 hours, luminescence
In short: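 SW480 cells stably carrying a luciferase reporter under an Sp5 promoter with eight TCF/LEF sites, plated at 4,000 cells/well in DMEM with 1% FBS and incubated 36 to 48 hours at 37° C. Luminescence normalized to DMSO-only cells; EC50 fitted by four-parameter nonlinear regression.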

recombinant GSK3β kinase = recombinant GSK3β kinase (Homo sapiens (Human), UniProt P49841); assay: GSK3β kinase assay (Ser/Thr 09 peptide Z-lyte, FRET); assay type: biochemical; settings: GSK3β kinase, 46 μM ATP, one hour; method calls values IC50
Sequence of recombinant GSK3β kinase (P49841 whole entry): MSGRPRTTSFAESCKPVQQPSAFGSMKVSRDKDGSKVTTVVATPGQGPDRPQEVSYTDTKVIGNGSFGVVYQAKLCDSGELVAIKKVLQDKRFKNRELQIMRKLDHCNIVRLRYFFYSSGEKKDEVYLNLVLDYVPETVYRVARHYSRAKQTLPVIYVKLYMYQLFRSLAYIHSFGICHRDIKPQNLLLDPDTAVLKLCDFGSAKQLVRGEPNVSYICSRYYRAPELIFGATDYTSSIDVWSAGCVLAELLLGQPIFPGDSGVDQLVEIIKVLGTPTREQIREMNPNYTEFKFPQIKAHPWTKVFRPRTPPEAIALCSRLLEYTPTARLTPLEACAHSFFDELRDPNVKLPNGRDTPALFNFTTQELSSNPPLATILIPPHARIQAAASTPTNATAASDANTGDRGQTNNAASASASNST

[2] = test system: Tau phosphorylation at Ser396 (pSer396); assay: Tau phosphorylation (pSer396) assay in SH-SY5Y cells; assay type: cell-based, human
Procedure: Two days before treatment, cells were seeded onto 96 well plates at 5×10^4 cells/well.
The above synthesized compounds were screened using the cell assay procedure to assess decrease Tau phosphorylation at Ser396 (pSer396) described below.
Cells were lysed with RIPA buffer complemented with phosphatase and protease inhibitors then lysates were spun down at 12,000 g for 10 min to remove any cellular debris.

[3] = test system: SW480 colon carcinoma cells; assay: Cell viability assay (CellTiter-Glo) in SW480 cells; assay type: cell-based, human; settings: Homo sapiens, 96 h, four days
[4] = test system: primary human fibroblasts derived from IPF patients (LL29 cells), α-smooth muscle actin; assay: Inhibition of fibrotic process: αSMA in TGF-β1 treated LL29 fibroblasts; assay type: cell-based; settings: Homo sapiens, Fibroblast, 96 h; LL29 cells, TGF-β1 20 ng/mL, 4 days, % cells positive for αSMA
In short: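 LL29 fibroblasts from IPF patients, in F12 medium with 1% FBS, treated with TGF-β1 plus compound; TGF-β1 with DMSO as positive control, DMSO alone as negative control. After 4 days' incubation, SYTOX green nucleic acid stain added at 1 μM final, 30 min at room temperature.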

IL-6 = IL-6 inhibition in LPS-stimulated human peripheral blood mononuclear cells (HTRF); assay type: cell-based; settings: Homo sapiens, PBMC; for EC50: huPBMCs, LPS 50 ng/mL, 22 hours, IL-6 HTRF
In short: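 Fresh human PBMCs at 1×10e6 cells/mL in 1% FBS-RPMI were pretreated with compound for 2 h, then stimulated with 50 ng/mL E. coli 0111:B4 LPS for a further 22 h at 37 °C. IL-6 was measured by HTRF (665/620 nm ratio). Values were normalized to DMSO and fitted 4-parameter for EC50.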

[5] = molecular target: recombinant DYRK1A kinase (Homo sapiens (Human), UniProt Q13627); assay: DYRK1A kinase assay (Ser/Thr 18 peptide Z-lyte, FRET); settings: DYRK1A kinase, 30 μM ATP, one hour; method calls values IC50
[6] = Homo sapiens, SH-SY5Y cells, overnight (16-18 h), pSer396 Tau ELISA, read-out: EC50

| EC50 [1] [nM] | EC50 (recombinant GSK3β kinase) [nM] | EC50 [2, 6] [nM] | EC50 [3] [nM] | EC50 (IL-6) [nM] | EC50 [5] [nM] | EC50 ([2]; SH-SY5Y cells, overnight (16-18 h), pSer396 Tau ELISA, read-out: EC50) [nM] | SMILES | EC50 [4] [nM] | inhibition at 10 µM (IL-6; read-out: percent inhibition at 10 μM) [%] | EC50 ([2]; Homo sapiens, SH-SY5Y) [nM] |
| --- | --- | --- | --- | --- | --- | --- | --- | --- | --- | --- |
| 1160 | > 10000 | 2100 | 340 | 9980 | 24 |  | Cc1ncc(C(=O)Nc2cc3cc(-c4cnn(C5CCN(C)CC5)c4)ccc3cn2)s1 [Compound 28, 2-Methyl-N-(6-(1-(1-methylpiperidin-4-yl)-1H-pyrazol-4-yl)isoquinolin-3-yl)thiazole-5-carboxamide] | 381 |  |  |
|  |  |  |  |  |  | > 10000 | CCN1/C(=C/C(C)=O)Sc2ccc(O)cc21 [Indy, reference compound] |  |  |  |
| 55 | 4180 | 64 | 105 | 277 | 3 |  | CC(C)OC(=O)N1CCC(n2cc(C(=O)Nc3cc4cc(-c5cnn(C)c5)ccc4cn3)cn2)CC1 [Compound 10, isopropyl 4-(4-((6-(1-methyl-1H-pyrazol-4-yl)isoquinolin-3-yl)carbamoyl)-1H-pyrazol-1-yl)piperidine-1-carboxylate] | 62 |  |  |
| 1150 | 9 | 85 | 836 | 427 | 4 |  | Cc1ncc(-c2ccc3cnc(NC(=O)Cn4ccnc4)cc3c2)o1 [Compound 64, 2-(1H-imidazol-1-yl)-N-(6-(2-methyloxazol-5-yl)isoquinolin-3-yl)acetamide] | 187 |  |  |
| 300 | 3600 | > 10000 | 3650 | > 10000 | 14 |  | Cn1cc(-c2ccc3cnc(NC(=O)c4csc(C5CCN(CCF)CC5)n4)cc3c2)cn1 [Compound 27, 2-(1-(2-Fluoroethyl)piperidin-4-yl)-N-(6-(1-methyl-1H-pyrazol-4-yl)isoquinolin-3-yl)thiazole-4-carboxamide] | 2520 | 34.5 |  |
| 110 | 450 | 193 | 23 | 2760 | 2 |  | Cc1ncc(C(=O)Nc2cc3cc(-c4cnc(C)n4C)ccc3cn2)s1 [Compound 62, N-(6-(1,2-Dimethyl-1H-imidazol-5-yl)isoquinolin-3-yl)-2-methylthiazole-5-carboxamide] | 644 |  |  |
|  |  |  |  |  |  |  | COc1ccc2c(c1)[nH]c1c(C)nccc12 [Harmine, reference compound] |  |  | > 10000 |
| 11 | 780 | 27 | 59 | 504 | 1 |  | CC(C)N1CCC(n2cc(C(=O)Nc3cc4cc(-c5cnn(C)c5)ccc4cn3)cn2)CC1 [Compound 8, 1-(1-isopropylpiperidin-4-yl)-N-(6-(1-methyl-1H-pyrazol-4-yl)isoquinolin-3-yl)-1H-pyrazole-4-carboxamide] | 72 |  |  |
| 27 | 1040 | 99 | 38 | 114 | 2 |  | Cn1cc(-c2ccc3cnc(NC(=O)c4cnn(C5CCNCC5)c4)cc3c2)cn1 [Compound 2, N-(6-(1-methyl-1H-pyrazol-4-yl)isoquinolin-3-yl)-1-(piperidin-4-yl)-1H-pyrazole-4-carboxamide] | 93 |  |  |
| 34 | 611 |  | 58 | 298 | 2 |  | Cc1ncc(-c2ccc3cnc(NC(=O)c4cnn(C5CCN(C)CC5)c4)cc3c2)o1 [Compound 63, N-(6-(2-Methyloxazol-5-yl)isoquinolin-3-yl)-1-(1-methylpiperidin-4-yl)-1H-pyrazole-4-carboxamide] | 113 |  |  |
| 30 | 628 |  | 48 | 361 | 6 |  | Cc1nnc(-c2ccc3cnc(NC(=O)c4cnn(C5CCN(C)CC5)c4)cc3c2)s1 [Compound 65, N-(6-(5-Methyl-1,3,4-thiadiazol-2-yl)isoquinolin-3-yl)-1-(1-methylpiperidin-4-yl)-1H-pyrazole-4-carboxamide] | 219 |  |  |
| 106 | 979 |  | 300 | 695 | 12 |  | Cn1cc(-c2ccc3cnc(NC(=O)c4coc(C5CCNCC5)n4)cc3c2)cn1 [Compound 19, N-(6-(1-Methyl-1H-pyrazol-4-yl)isoquinolin-3-yl)-2-(piperidin-4-yl)oxazole-4-carboxamide] | 170 |  |  |
| 35 | 1500 |  | 77 | 145 | 3 |  | Cn1cc(-c2ccc3cnc(NC(=O)c4cnn(C5CCN(CCF)CC5)c4)cc3c2)cn1 [Compound 7, 1-(1-(2-Fluoroethyl)piperidin-4-yl)-N-(6-(1-methyl-1H-pyrazol-4-yl)isoquinolin-3-yl)-1H-pyrazole-4-carboxamide] | 47 |  |  |
| 114 | 458 |  | 399 | 2540 | 19 |  | Cn1cc(-c2ccc3cnc(NC(=O)c4coc(C5CCNCC5)n4)cc3c2)nn1 [Compound 36, N-(6-(1-Methyl-1H-1,2,3-triazol-4-yl)isoquinolin-3-yl)-2-(piperidin-4-yl) oxazole-4-carboxamide] | 596 |  |  |
